Columns and labels:
Type in all cases: cell-based
[1] = tested on: apherese blood platelets; assay: Apheresis platelets stored with Sul 136, Annexin V test by flow cytometry; settings: stored at 4° C. with Sul 136
Protocol: (§1) 300 μM suspension of Sul 136 is added with a procedure, which keeps the bag content sterile and the Sul 136 is kept in suspension by frequent whirling and stored at 37° C. before it is added to the freshly harvested platelets. The Sul 136 suspension is added to three platelet bags directly from the bag. After addition, the content of the platelet bag is gently mixed. After 2 hours the first sample is drawn with a seal-docked sample bag. The sample bag is disconnected by welding and from this sample bag the samples are taken for hematology analyzing, aggregometer tests and the flow-cytometry tests. Swirling in the bag is reported by experience of the laboratory worker in the standard format. Platelets without Sul 136 put on a flatbed shaker and stored at room temperature were used as control. Another control is stored at 4° C. Platelet samples in which Sul 136 is added, are stored without shaking in a refrigerator at 4° C.
On a Beckman Coulter FC 500 flow cytometer using the Roche Annexin-V FLUOS Staining Kit
A mix of 20 μl Annexin-V fluorescein from Roche kit into 1 ml incubation buffer was made and 20 μl propidium iodide solution was added. 2 ml of platelet concentrate was centrifuged on standard Eppendorf centrifuge and the supernatant was discarded.
1 ml PBS buffer was added and cell concentration was checked whether it was around 1.000.000. This was diluted 100 times with the prepared Annexin-V fluorescein and propidium iodide mix and incubated for 15 minutes. 500 μl incubation buffer from kit was added and cell analysis was made in a flowcytometer.

[2] = tested on: apherese blood platelets; assay: Apheresis platelets stored with Sul 136, hematology analysis (platelet count, MPV); settings: stored at 4° C. with Sul 136
Excerpt: as §1, with “Platelets were obtained via standard plateletpheresis procedures either on Haemonetics (donor 2611811 and donor 2611855) or on Cobe instruments (donor 2611770). According the protocol all units would be obtained with plateletpheresis procedure with the Cobe instrument, but from the three donations two were not passing the blood bank quality control criteria. Nevertheless, all platelet donations have a similar concentration and a similar platelet quality. In none of the platelet concentrates clots were found. The freshly harvested platelets are weighed on a balance and for sampling of platelet concentrate a small PVC bag was seal-docked to the main platelet concentrate bag. Standard homogenization of platelet concentrate has to be done with a roller before sampling. 300” for “300”

[3] = tested on: Human Embryo Kidney (HEK) 293 cells; assay: Hypothermia/rewarming injury of HEK cells, trypan blue viability count

Question: Which results are given for Cc1c(C)c2c(c(C)c1O)CCC(C)(C(=O)N1CCN(CC(=O)O)CC1)O2 (racemic) [SUL - 136, 2-(4-(6-hydroxy-2,5,7,8-tetramethylchroman-2-carbonyl)piperazin-1-yl)acetic acid]?
Answer: Annexin (% positive) ([1]; Donor 2, Day 1): 5.98%; Annexin (% positive) ([1]; Donor 2, Day 2): 10.96%; Annexin (% positive) ([1]; Donor 2, Day 3): 19.56%; Annexin (% positive) ([1]; Donor 2, Day 5): 32.11%; Annexin (% positive) ([1]; Donor 2, Day 8): 45.71%; Annexin (% positive) ([1]; Donor 2, Day 10): 53.96%; Annexin (% positive) ([1]; Donor 2, Day 12): 62.97%; Annexin (% positive) ([1]; Donor 2, Day 19): 72.67%; Annexin (% positive) ([1]; Donor 3, Day 1): 5.14%; Annexin (% positive) ([1]; Donor 3, Day 2): 8.68%; Annexin (% positive) ([1]; Donor 3, Day 3): 14.34%; Annexin (% positive) ([1]; Donor 3, Day 5): 27.77%; Annexin (% positive) ([1]; Donor 3, Day 8): 41.97%; Annexin (% positive) ([1]; Donor 3, Day 10): 62.65%; Annexin (% positive) ([1]; Donor 3, Day 12): 70.33%; Annexin (% positive) ([1]; Donor 3, Day 19): 80.99%; Annexin (% positive) ([1]; donor 1, Day 1): 4.51%; Annexin (% positive) ([1]; donor 1, Day 2): 14.48%; Annexin (% positive) ([1]; donor 1, Day 3): 18.24%; Annexin (% positive) ([1]; donor 1, Day 5): 20.38%; Annexin (% positive) ([1]; donor 1, Day 8): 34.56%; Annexin (% positive) ([1]; donor 1, Day 10): 43.52%; Annexin (% positive) ([1]; donor 1, Day 12): 56.91%; Annexin (% positive) ([1]; donor 1, Day 19): 88.34%; MPV ([2]; Donor 2, Day 1): 10.1 fL; Platelets/μl ([2]; Donor 2, Day 1): 1,004,000 Platelets/μl; MPV ([2]; Donor 2, Day 2): 7.6 fL; Platelets/μl ([2]; Donor 2, Day 2): 1,272,000 Platelets/μl; MPV ([2]; Donor 2, Day 3): 7.8 fL; Platelets/μl ([2]; Donor 2, Day 3): 1,220,000 Platelets/μl; MPV ([2]; Donor 2, Day 5): 8.0 fL; Platelets/μl ([2]; Donor 2, Day 5): 1,252,000 Platelets/μl; MPV ([2]; Donor 2, Day 8): 8.0 fL; Platelets/μl ([2]; Donor 2, Day 8): 1,168,000 Platelets/μl; MPV ([2]; Donor 2, Day 10): 8.1 fL; Platelets/μl ([2]; Donor 2, Day 10): 1,104,000 Platelets/μl; MPV ([2]; Donor 2, Day 12): 8.6 fL; Platelets/μl ([2]; Donor 2, Day 12): 1,032,000 Platelets/μl; MPV ([2]; Donor 2, Day 19): 8.8 fL; Platelets/μl ([2]; Donor 2, Day 19): 860,000 Platelets/μl; MPV ([2]; Donor 3, Day 1): 10.3 fL; Platelets/μl ([2]; Donor 3, Day 1): 980,000 Platelets/μl; MPV ([2]; Donor 3, Day 2): 7.7 fL; Platelets/μl ([2]; Donor 3, Day 2): 1,188,000 Platelets/μl; MPV ([2]; Donor 3, Day 3): 7.7 fL; Platelets/μl ([2]; Donor 3, Day 3): 1,072,000 Platelets/μl; MPV ([2]; Donor 3, Day 5): 8.0 fL; Platelets/μl ([2]; Donor 3, Day 5): 1,068,000 Platelets/μl; MPV ([2]; Donor 3, Day 8): 8.3 fL; Platelets/μl ([2]; Donor 3, Day 8): 992,000 Platelets/μl; MPV ([2]; Donor 3, Day 10): 8.3 fL; Platelets/μl ([2]; Donor 3, Day 10): 892,000 Platelets/μl; MPV ([2]; Donor 3, Day 12): 9.0 fL; Platelets/μl ([2]; Donor 3, Day 12): 912,000 Platelets/μl; MPV ([2]; Donor 3, Day 19): 9.5 fL; Platelets/μl ([2]; Donor 3, Day 19): 692,000 Platelets/μl; MPV ([2]; donor 1, Day 1): 10.6 fL; Platelets/μl ([2]; donor 1, Day 1): 1,000,000 Platelets/μl; MPV ([2]; donor 1, Day 2): 9.5 fL; Platelets/μl ([2]; donor 1, Day 2): 1,192,000 Platelets/μl; MPV ([2]; donor 1, Day 3): 9.2 fL; Platelets/μl ([2]; donor 1, Day 3): 1,240,000 Platelets/μl; MPV ([2]; donor 1, Day 5): 9.1 fL; Platelets/μl ([2]; donor 1, Day 5): 1,232,000 Platelets/μl; MPV ([2]; donor 1, Day 8): 9.3 fL; Platelets/μl ([2]; donor 1, Day 8): 1,352,000 Platelets/μl; MPV ([2]; donor 1, Day 10): 9.6 fL; Platelets/μl ([2]; donor 1, Day 10): 1,228,000 Platelets/μl; MPV ([2]; donor 1, Day 12): 9.8 fL; Platelets/μl ([2]; donor 1, Day 12): 1,204,000 Platelets/μl; MPV ([2]; donor 1, Day 19): 8.8 fL; Platelets/μl ([2]; donor 1, Day 19): 1,068,000 Platelets/μl; viability at 0.01 µM ([3]; Homo sapiens, HEK293, 24 h, 10 nM, 24 h at 4° C., 24 h rewarming, read-out: % cells that survived): 99.6%; viability at 0.1 µM ([3]; Homo sapiens, HEK293, 24 h, 100 nM, 24 h at 4° C., 24 h rewarming, read-out: % cells that survived): 100%; viability at 1 µM ([3]; Homo sapiens, HEK293, 24 h, 1 μM, 24 h at 4° C., 24 h rewarming, read-out: % cells that survived): 98.4%; viability at 10 µM ([3]; Homo sapiens, HEK293, 24 h, 10 μM, 24 h at 4° C., 24 h rewarming, read-out: % cells that survived): 99.5%; viability at 100 µM ([3]; Homo sapiens, HEK293, 24 h, 100 μM, 24 h at 4° C., 24 h rewarming, read-out: % cells that survived): 99.3%; viability at 1000 µM ([3]; Homo sapiens, HEK293, 24 h, 1 mM, 24 h at 4° C., 24 h rewarming, read-out: % cells that survived): 100%; % cells that survived, Mean ([3]; mean over the tested concentrations): 99%
